Series [1] relates to cells. Briefly: Real-time cell growth measurement using Xcelligence. Type of series: cell-based. The note with it: peptides treated in 10 μM, FIG. 30. On the procedure:
Cell viability was measured using Xcelligence for in real time observation, and the peptides were treated in 10 μM. […] The results are illustrated in FIG. 30.

A further series addresses T1, Akt1 (Homo sapiens, UniProt P31749).
T1 construct: After treating with the cell lysates; endogenous in cells
Briefly: In vitro binding of biotin-conjugated FCHo1-derived peptides to Akt1 (streptavidin plate, cell lysates, Akt1 antibody). As to conditions: biotin-conjugated peptide on streptavidin plate, FIG. 28. The text has this: To confirm the binding affinity between Akt1 and Akt1 motif-containing FCHo1 amino acid sequence-derived peptides, biotin was conjugated to peptides to complete the synthetization. The peptides were reacted and attached to on the streptavidin-attached plate. After treating with the cell lysates, the binding affinity of the peptide and Akt1 was confirmed by the Akt1 antibody. The experiment process and its result of confirming in vitro binding affinity of Akt1 according to respective peptides derived from FCHo1 binding sites are illustrated in FIG. 28.

The next series relates to FCHo1 cleavage. Briefly: Immunoblot of FCHo1 cleavage in A549 cell extract with or without MG132. It is filed as cell-based, human. The note with it: 1 μM MG132, 16 hours, A549 cells. On the procedure:
The cells were dissolved in IP dissolution buffer for 30 min at 4° C. After centrifugation at 17,000×g for 30 minutes, the concentration of the protein was measured, and the same amount of lysate was used for immunoprecipitation. The immunoprecipitation was carried out overnight at 4° C. using anti-FLAG M^2 affinity gel (Sigma-Aldrich). The precipitate was washed three times with washing solution, and the precipitated proteins were separated using SDS-PAGE. Western blotting was carried out using anti-rabbit antibodies conjugated with specific antibodies and secondary anti-mouse IgG Veriblot or horseradish peroxidase. The results were visualized using a chemiluminescence detector (Atto Ez-Capture MG).
To test the potential involvement of specific proteases to cleave FCHo1, the cells were treated with 1 μM MG132, a protease inhibitor for 16 hours. Immunoblotting of the A549 cell extract was performed in the presence or absence of the MG132 protease inhibitor, and the results are illustrated in FIG. 5.

The test system of series [2] is cells. Briefly: Intracellular uptake of biotin-conjugated peptides (streptavidin-488, CLSM). The note with it: biotin-conjugated peptide, no carrier or CPP, FIG. 29. Type of series: cell-based. As for the experimental part:
Biotin-conjugated peptides were treated to cells and fixed on the cells, followed by reaction with streptavidin-488 fluorescent dye, followed by observation with CLSM. The results are illustrated in FIG. 29.

In another series the test system is mouse FCHo1. Kind of series: FCHo1 inhibitory effect of shRNA sequences acting on mouse FCHo1. The note with it: among four shRNA sequences, SEQ ID NOs: 1 to 4. As for the experimental part:
(§1) H&E slides were prepared to confirm whether adenoma and hyperplasia were reduced. The shFCHo1 was used for FCHo1 cleavage inhibition. The sequence thereof is represented in SEQ ID NOs: 1 to 4 based on FIG. 26. […] Therefore, this was used to perform this experiment.

In series [3] the test system is lung cancer model mouse (K-ras). Kind of series: Anticancer effect of aerosol-delivered lentiviral FCHo1 vectors in lung cancer model mouse. As to conditions: K-ras female mice, lentiviral vector inhaled 8 times for 4 weeks, H&E slides, 5 mice per group. It is filed as in vivo. On the procedure: Lentiviral vectors were prepared for the full-length, mutation type and deletion type of FCHo1 and transferred to lung cancer model mouse in a non-invasive aerosol method. Then their anticancer effects were confirmed. Example 8 confirmed that the sites involved in FCHo1 cleavage in human cells were FCHo1^S570A and FCHo1^del563-564. Therefore, corresponding positions were confirmed in mouse FCHo1. It was confirmed that S570A corresponded to S554A and del563-564 corresponded to del544-545. […] Then, the anticancer effects thereof were compared. The results are illustrated in FIG. 25.
as §1

Another series deals with A549 cells. Kind of series: Midbody formation in A549 cells expressing FCHo1 constructs (CLSM, MKLP1 staining). The note with it: A549 cells in mitosis, compared with wild-type FCHo1. Type of series: cell-based, human. On the procedure:
A549 cells were placed in 8-well chamber cover glasses or high-precision cover glasses and were fixed with 3% paraformaldehyde for 10 minutes at room temperature, permeabilized with 0.5% TRITON® X-100 (Sigma-Aldrich) for 5 min, blocked for 30 minutes. Then, the cells were incubated with primary or secondary antibodies in blocking solution (PBS with 0.1% saponin and 3% BSA). Alexa Fluor 647 conjugated anti-rabbit secondary antibody and an oxygen scavenging system (0.5 mg/ml glucose oxidase, 40 μg/ml catalase, 10% glucose, pH 7.4) were used for stochastic optical reconstruction microscopy (dSTORM) imaging. Before imaging, 30 mM mercaptoethylamine ([…]; Sigma) was added to obtain a final thiol concentration of 10-200 mM. All dSTORM and SIM images were obtained from Carl Zeiss ELYRA PS.1 (super-resolution microscopy), and all CLSM images were obtained from the Carl Zeiss LSM710 (confocal laser scanning microscope). […]
In the analysis using the synchronization method, the cells were stained with MKLP1 antibody for the central spindle or midbody type analyses. The rates of cells in anaphase (central spindle) and telophase (midbody) were quantified via CLSM images: FCHo1 siRNA (n=318), wt FCHo1 (n=702), FCHo1 Δ563-564 (n=756) and FCHo1 Δ531-589 (n=1952). […]

Marks after values point to notes of the source that are not given here. Ends that are not written are not given here. Peptide text beside a SMILES is read from it. * marks the point of attachment. Cbz = O=C(OCc1ccccc1)*

T1 sequence (P31749 whole entry): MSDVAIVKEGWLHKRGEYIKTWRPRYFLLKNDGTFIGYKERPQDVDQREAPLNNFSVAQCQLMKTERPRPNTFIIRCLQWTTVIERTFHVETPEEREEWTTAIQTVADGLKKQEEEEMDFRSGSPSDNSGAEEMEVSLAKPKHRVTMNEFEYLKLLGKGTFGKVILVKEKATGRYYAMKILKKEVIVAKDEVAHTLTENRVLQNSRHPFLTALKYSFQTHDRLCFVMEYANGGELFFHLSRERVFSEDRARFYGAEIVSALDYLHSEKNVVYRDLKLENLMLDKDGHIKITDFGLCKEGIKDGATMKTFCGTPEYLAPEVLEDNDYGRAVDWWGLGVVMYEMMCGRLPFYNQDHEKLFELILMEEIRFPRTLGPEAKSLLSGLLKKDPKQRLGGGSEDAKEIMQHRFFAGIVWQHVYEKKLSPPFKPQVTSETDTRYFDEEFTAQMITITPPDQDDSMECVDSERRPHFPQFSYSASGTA

Turning to RRLRSRKVSC (FCHo1 fragment) [562-571], the “inhibitory effect on cell growth” value with cells [1] was “inhibitory effects on the cell growth”. Besides, the Akt1 binding affinity result with Akt1 is “significantly increased”.
For “560-567: peptide derived from the FCHo1 amino acid sequence, residues 560-567 (PPRRLRSR; UniProt O14526 560-567, looked up, fragment)”, the “inhibitory effect on cell growth” value in the series on cells [1] is reported as “inhibitory effects on the cell growth”.
Turning to `CC(C)C[C@@H](C=O)NC(=O)[C@H](CC(C)C)NC(=O)[C@H](CC(C)C)NC(=O)OCc1ccccc1` [MG132] (Cbz-Leu-Leu-Leu-aldehyde), the “cleaved FCHo1 protein (immunoblot)” value in the series on FCHo1 cleavage is “completely disappeared”.
As to PPRRLRSRKVSC [560-571, PPRRLRSRKVSC], in the series on cells [2], the “absorption into a cell” value is given as “increase in absorption into a cell in a concentration-dependent manner”.
Consider “shFCHo1: shRNA acting on mouse FCHo1, SEQ ID NO: 2 (GAGAGAACACCAGCCAGAAUCUCUUCUGGCUGGUGUUCUCUC; hairpin, further chemistry not given here)”, for which the FCHo1 inhibitory effect entry in the series with mouse FCHo1 is “most significant FCHo1 inhibitory effect”. In addition, in series [3], the “No. of Adenocarcinoma” value was 0.20 ± 0.45, the “No. of Adenoma” value was found to be 0.60 ± 0.55 and the “No. of hyperplasia foci” value is on record as 0.60 ± 0.55**^,#.

B1: Δ563-564: human FCHo1 with 563-564aa deleted (MMP-9 cleavage site), expressed in A549 cells (protein)
chain: MSYFGEHFWGEKNHGFEVLYHSVKQGPISTKELADFIRERATIEETYSKAMAKLSKLASNGTPMGTFAPLWEVFRVSSDKLALCHLELTRKLQDLIKDVLRYGEEQLKTHKKCKEEVVSTLDAVQVLSGVSQLLPKSRENYLNRCMDQERLRRESTSQKEMDKAETKTKKAAESLRRSVEKYNSARADFEQKMLDSALRFQAMEETHLRHMKALLGSYAHSVEDTHVQIGQVHEEFKQNIENVSVEMLLRKFAESKGTGREKPGPLDFEAYSAAALQEAMKRLRGAKAFRLPGLSRREREPEPPAAVDFLEPDSGTCPEVDEEGFTVRPDVTQNSTAEPSRFSSSDSDFDDEEPRKFYVHIKPAPARAPACSPEAAAAQLRATAGSLILPPGPGGTMKRHSSRDAAGKPQRPRSAPRTSSCAERLQSEEQVSKNLFGPPLESAFDHEDFTGSSSLGFTSSPSPFSSSSPENVEDSGLDSPSHAAPGPSPDSWVPRPGTPQSPPSCRAPPPEARGIRAPPLPDSPQPLASSPGPWGLEALAGGDLMPAPADPTAREGLAAPPRRSRKVSCPLTRSNGDLSRSLSPSPLGSSAASTALERPSFLSQTGHGVSRGPSPVVLGSQDALPIATAFTEYVHAYFRGHSPSCLARVTGELTMTFPAGIVRVFSGTPPPPVLSFRLVHTTAIEHFQPNADLLFSDPSQSDPETKDFWLNMAALTEALQRQAEQNPTASYYNVVLLRYQFSRPGPQSVPLQLSAHWQCGATLTQVSVEYGYRPGATAVPTPLTNVQILLPVGEPVTNVRLQPAATWNLEEKRLTWRLPDVSEAGGSGRLSASWEPLSGPSTPSPVAAQFTSEGTTLSGVDLELVGSGYRMSLVKRRFATGMYLVSC
modifications: Fcho1 delta563-564
notes: human FCHo1 with 563-564aa deleted (MMP-9 cleavage site), expressed in A549 cells
B1: the midbody formation result in the series on A549 cells is “inhibited the midbody formation”.
